In PubChem BioAssay (NCI):
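Where inhibition never reached the appropriate level, the endpoint shown equals the highest concentration tested. Otherwise, values were interpolated linearly from a five-concentration, 48-hour dose response in 96-well plates. TGI marks complete inhibition of growth.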

Experiments:
Test in all cases: growth of human tumour cells (NCI), 48 h
SR leukemia = test system: SR leukemia
SF-268 CNS = test system: SF-268 CNS
OVCAR-8 ovarian = test system: OVCAR-8 ovarian
MDA-MB-435 = test system: MDA-MB-435
SF-295 CNS = test system: SF-295 CNS
UO-31 renal = test system: UO-31 renal
A549 NSCLC = test system: A549 NSCLC
NCI-H226 lung = test system: NCI-H226 lung
DU-145 prostate = test system: DU-145 prostate
NCI-H23 lung = test system: NCI-H23 lung
COLO 205 colon = test system: COLO 205 colon
TK-10 renal = test system: TK-10 renal
IGROV1 ovarian = test system: IGROV1 ovarian
LOX IMVI melanoma = test system: LOX IMVI melanoma
HT29 colon = test system: HT29 colon
EKVX NSCLC = test system: EKVX NSCLC
HCC-2998 colon = test system: HCC-2998 colon
A498 renal = test system: A498 renal
CAKI-1 renal = test system: CAKI-1 renal
HCT-116 colon = test system: HCT-116 colon
BT-549 breast = test system: BT-549 breast
HOP-92 NSCLC = test system: HOP-92 NSCLC
786-0 renal = test system: 786-0 renal
NCI-H460 lung = test system: NCI-H460 lung
KM12 colon = test system: KM12 colon
SF-539 CNS = test system: SF-539 CNS
SNB-19 CNS = test system: SNB-19 CNS
M14 melanoma = test system: M14 melanoma
HCT-15 colon = test system: HCT-15 colon
UACC-257 melanoma = test system: UACC-257 melanoma
SK-MEL-2 melanoma = test system: SK-MEL-2 melanoma
SN12C renal = test system: SN12C renal
K-562 leukemia = test system: K-562 leukemia
NCI-H522 lung = test system: NCI-H522 lung
MDA-N = test system: MDA-N
RPMI-8226 leukemia = test system: RPMI-8226 leukemia
SW-620 colon = test system: SW-620 colon
SK-MEL-5 melanoma = test system: SK-MEL-5 melanoma
OVCAR-3 ovarian = test system: OVCAR-3 ovarian
SNB-75 CNS = test system: SNB-75 CNS
UACC-62 melanoma = test system: UACC-62 melanoma
MOLT-4 leukemia = test system: MOLT-4 leukemia
SK-MEL-28 melanoma = test system: SK-MEL-28 melanoma
PC-3 prostate = test system: PC-3 prostate
RXF 393 renal = test system: RXF 393 renal
SK-OV-3 ovarian = test system: SK-OV-3 ovarian
HOP-62 NSCLC = test system: HOP-62 NSCLC
HS 578T breast = test system: HS 578T breast
MDA-MB-231 breast = test system: MDA-MB-231 breast
U251 CNS = test system: U251 CNS
MCF7 breast = test system: MCF7 breast
NCI/ADR-RES ovarian = test system: NCI/ADR-RES ovarian
OVCAR-5 ovarian = test system: OVCAR-5 ovarian
ACHN renal = test system: ACHN renal
T-47D breast = test system: T-47D breast
OVCAR-4 ovarian = test system: OVCAR-4 ovarian
MALME-3M melanoma = test system: MALME-3M melanoma
HL-60(TB) leukemia = test system: HL-60(TB) leukemia

Compound O=C(CCc1cc(O)cc(O)c1)NCCc1cc(O)cc(OCc2ccccc2)c1 has a TGI (SR leukemia) of 87.3 µM, a TGI (SF-268 CNS) greater than 100 µM and a TGI (OVCAR-8 ovarian) greater than 100 µM. The TGI (MDA-MB-435) was greater than 100 µM, the TGI (SF-295 CNS) was greater than 100 µM and the TGI (UO-31 renal) was greater than 100 µM. The TGI (A549 NSCLC) was greater than 100 µM, the TGI (NCI-H226 lung) was greater than 100 µM and the TGI (DU-145 prostate) was greater than 100 µM. For the same compound, the TGI (NCI-H23 lung) was greater than 100 µM, the TGI (COLO 205 colon) was greater than 100 µM and the TGI (TK-10 renal) was greater than 100 µM. It also gave a TGI (IGROV1 ovarian) greater than 100 µM, a TGI (LOX IMVI melanoma) greater than 100 µM and a TGI (HT29 colon) greater than 100 µM. The TGI (EKVX NSCLC) was greater than 100 µM, the TGI (HCC-2998 colon) was 39.1 µM and the TGI (A498 renal) was greater than 100 µM. For the same compound, the TGI (CAKI-1 renal) was greater than 100 µM, the TGI (HCT-116 colon) was greater than 100 µM and the TGI (BT-549 breast) was 66.1 µM. It also gave a TGI (HOP-92 NSCLC) greater than 100 µM, a TGI (786-0 renal) greater than 100 µM and a TGI (NCI-H460 lung) of 47.3 µM. The TGI (KM12 colon) was greater than 100 µM, the TGI (SF-539 CNS) was greater than 100 µM and the TGI (SNB-19 CNS) was greater than 100 µM. It also gave a TGI (M14 melanoma) greater than 100 µM, a TGI (HCT-15 colon) greater than 100 µM and a TGI (UACC-257 melanoma) greater than 100 µM. The TGI (SK-MEL-2 melanoma) was greater than 100 µM, the TGI (SN12C renal) was greater than 100 µM and the TGI (K-562 leukemia) was 96.3 µM. It also gave a TGI (NCI-H522 lung) greater than 100 µM, a TGI (MDA-N) greater than 100 µM and a TGI (RPMI-8226 leukemia) of 90.5 µM. The TGI (SW-620 colon) was greater than 100 µM, the TGI (SK-MEL-5 melanoma) was 37.1 µM and the TGI (OVCAR-3 ovarian) was greater than 100 µM. It also gave a TGI (SNB-75 CNS) of 76.2 µM, a TGI (UACC-62 melanoma) greater than 100 µM and a TGI (MOLT-4 leukemia) of 66.2 µM. The TGI (SK-MEL-28 melanoma) was greater than 100 µM, the TGI (PC-3 prostate) was greater than 100 µM and the TGI (RXF 393 renal) was greater than 100 µM. For the same compound, the TGI (SK-OV-3 ovarian) was greater than 100 µM, the TGI (HOP-62 NSCLC) was greater than 100 µM and the TGI (HS 578T breast) was greater than 100 µM. For the same compound, the TGI (MDA-MB-231 breast) was greater than 100 µM, the TGI (U251 CNS) was greater than 100 µM and the TGI (MCF7 breast) was greater than 100 µM. It also gave a TGI (NCI/ADR-RES ovarian) greater than 100 µM, a TGI (OVCAR-5 ovarian) greater than 100 µM and a TGI (ACHN renal) of 81.6 µM. For the same compound, the TGI (T-47D breast) was greater than 100 µM.

Compound COC(=O)c1c(C)cccc1/C=C1\Cc2ccc(C)c(C)c2C1=O has a TGI (SR leukemia) greater than 100 µM, a TGI (SF-268 CNS) greater than 100 µM and a TGI (OVCAR-8 ovarian) greater than 100 µM. For the same compound, the TGI (SF-295 CNS) was greater than 100 µM, the TGI (UO-31 renal) was greater than 100 µM and the TGI (A549 NSCLC) was greater than 100 µM. It also gave a TGI (OVCAR-4 ovarian) greater than 100 µM, a TGI (NCI-H226 lung) greater than 100 µM and a TGI (DU-145 prostate) greater than 100 µM. For the same compound, the TGI (NCI-H23 lung) was greater than 100 µM, the TGI (TK-10 renal) was greater than 100 µM and the TGI (IGROV1 ovarian) was greater than 100 µM. It also gave a TGI (LOX IMVI melanoma) greater than 100 µM, a TGI (MALME-3M melanoma) greater than 100 µM and a TGI (HT29 colon) greater than 100 µM. The TGI (EKVX NSCLC) was greater than 100 µM, the TGI (HCC-2998 colon) was greater than 100 µM and the TGI (A498 renal) was greater than 100 µM. For the same compound, the TGI (CAKI-1 renal) was greater than 100 µM, the TGI (HCT-116 colon) was greater than 100 µM and the TGI (BT-549 breast) was greater than 100 µM. For the same compound, the TGI (HOP-92 NSCLC) was greater than 100 µM, the TGI (786-0 renal) was greater than 100 µM and the TGI (NCI-H460 lung) was greater than 100 µM. The TGI (KM12 colon) was greater than 100 µM, the TGI (SF-539 CNS) was greater than 100 µM and the TGI (SNB-19 CNS) was greater than 100 µM. The TGI (M14 melanoma) was greater than 100 µM, the TGI (HCT-15 colon) was greater than 100 µM and the TGI (UACC-257 melanoma) was greater than 100 µM. It also gave a TGI (SK-MEL-2 melanoma) greater than 100 µM, a TGI (SN12C renal) greater than 100 µM and a TGI (K-562 leukemia) greater than 100 µM. It also gave a TGI (NCI-H522 lung) greater than 100 µM, a TGI (MDA-N) greater than 100 µM and a TGI (RPMI-8226 leukemia) greater than 100 µM. For the same compound, the TGI (SW-620 colon) was greater than 100 µM, the TGI (SK-MEL-5 melanoma) was greater than 100 µM and the TGI (OVCAR-3 ovarian) was greater than 100 µM. It also gave a TGI (SNB-75 CNS) greater than 100 µM, a TGI (UACC-62 melanoma) greater than 100 µM and a TGI (MOLT-4 leukemia) greater than 100 µM. For the same compound, the TGI (SK-MEL-28 melanoma) was greater than 100 µM, the TGI (PC-3 prostate) was greater than 100 µM and the TGI (RXF 393 renal) was greater than 100 µM. For the same compound, the TGI (HOP-62 NSCLC) was greater than 100 µM, the TGI (HS 578T breast) was greater than 100 µM and the TGI (MDA-MB-231 breast) was greater than 100 µM. For the same compound, the TGI (U251 CNS) was greater than 100 µM, the TGI (MCF7 breast) was greater than 100 µM and the TGI (OVCAR-5 ovarian) was greater than 100 µM. The TGI (ACHN renal) was greater than 100 µM, the TGI (HL-60(TB) leukemia) was greater than 100 µM and the TGI (T-47D breast) was greater than 100 µM.
